Experimental data reported in US20080300180A1, “Growth Hormone Secretagogue Receptor 1A Ligands” (Gastrotech Pharma A/S, priority 2004, published 2008).
Entries after “also recorded” stand apart in the source; their conditions may differ. Square brackets hold non-standard residues; d marks the D form. Ends that are not written are not given here. * marks the point of attachment. Octanoyl = CCCCCCCC(=O)*; GABA = NCCCC(=O)O

Test: Preclinical study evaluating the long-term efficacy of subcutaneous ghrelin, GTP-5 and GTP-6 in rats (weight gain, food intake, fat pads)
Type: in vivo, rat
Conditions: for Total weight increase in the animals, Mean ± S.D.: Sprague-Dawley rats, n=8, s.c. twice daily; for Body weight gain compared with saline group (in words) / Cumulative food intake compared with control group (in words) / Epididymal fat depots (fat pad weight, in words) / Subcutaneous fat depots (fat pad weight, in words): rats, s.c. twice daily
Procedure: 48 (Sprauge-Dawley (SD) IGS BR) rats were used in the study. The animals were caged individually and fed a commercial diet, R34, from Lactamin AB, Sweden. They were given free access to water. All animals were allowed an acclimatisation period of a minimum of 7 days prior to the commencement of the experiment. The animals were separated in six groups (n=8) and treated twice daily with subcutaneous injections as follows: • Group 1. Control (NaCl). • Group 2. Positive control Ghrelin 200 μg/kg body weight/injection. • Group 3. GTP-5 50 μg/kg body weight/injection. • Group 4. GTP-5 200 μg/kg body weight/injection. • Group 5. GTP-6 50 μg/kg body weight/injection. • Group 6. GTP-6 200 μg/kg body weight/injection.
The weight of the animals, and their food and water were recorded daily. The animals were checked twice daily for change in food intake, activity and fur quality as signs of a change in general health status.
Pre-dose, day 7 and 14 the animals were anaesthetized with Isofluran and blood was collected through the orbital plexus. The blood was analysed for clinical chemistry (ASAT, ALAT, bilirubin, albumin, creatinine, LD, GGT, potassium, sodium, glucose, IgF-1, insulin and leptin) and haematology (white blood cells, red blood cells, haemoglobin, platelets and haematokrit). After blood sampling the animals were killed and epididymal, subcutaneous and retroperitoneal fat pads were dissected and weighed.

[1] = 200 μg/kg body weight/injection
[2] = 50 μg/kg body weight/injection (low dose)
[3] = 200 μg/kg body weight/injection (high dose)
[4] = 200 μg/kg body weight/injection (high dose), listed as ghrelin

Row | Substance | Total weight increase in the animals, Mean ± S.D. (50 μg/kg body weight/injection) | Total weight increase in the animals, Mean ± S.D. [1] | Body weight gain compared with saline group (in words) [2] | Cumulative food intake compared with control group (in words) [2] | Body weight gain compared with saline group (in words) [3] | Cumulative food intake compared with control group (in words) [3] | Epididymal fat depots (fat pad weight, in words) [3] | Subcutaneous fat depots (fat pad weight, in words) [3] | Body weight gain compared with saline group (in words) [4] | Cumulative food intake compared with control group (in words) [4] | Subcutaneous fat depots (fat pad weight, in words) [2]
1 | GABAS(CO-C7 H15)FLSPEHQRVQQRKESKKPPAKLQPR ([GABA]S(Octanoyl)FLSPEHQRVQQRKESKKPPAKLQPR) [GTP-5, 27 amino acids long, octanoyl on the serine-3 sidechain (GABA = 4-aminobutyric acid)] | 75.4 ± 14.3 g | 78.2 ± 16.3 g | higher weight gains than saline; also recorded: associated with increases | associated with increases | higher weight gains than saline; also recorded: associated with increases | tended to eat more than the control group; also recorded: associated with increases | significant increase | significant increase; also recorded: induced an increase |  |  | 
2 | Ghrelin: Positive control; 28 amino acid peptide hormone acylated on serine 3, endogenous GHS-R1a ligand (GSS(Octanoyl)FLSPEHQRVQQRKESKKPPAKLQPR; UniProt Q9UBU3 24-51, looked up) [reference compound] |  | 92.1 ± 9.0 g |  |  | associated with increases | associated with increases | significant increase | significant increase; also recorded: induced an increase | gained significantly more weight than the saline group | higher cumulative food intake | 
3 | bASS(CO-C7 H15)FLSPEHQRVQQRKESKKPPAKLQPR (XSSFLSPEHQRVQQRKESKKPPAKLQPR; N-terminal beta-alanine; octanoyl on Ser3) [GTP-6, 28 amino acids long, octanoyl group on serine-3 sidechain (bA = beta-alanine)] | 79.3 ± 10.0 g | 77.8 ± 10.2 g | higher weight gains than saline; also recorded: associated with increases | tended to eat more than the control group; also recorded: associated with increases | higher weight gains than saline; also recorded: associated with increases | tended to eat more than the control group; also recorded: associated with increases |  | significant increase; also recorded: induced an increase |  |  | significant increase; also recorded: induced an increase
